Measurements reported in PMC12040169 (PLOS Biology, 2025).

Assay: in vitro
Settings: human, hela cells, % viability

CC1Cc2cc(C(O)CN3CCCCC3)ccc2N1C(=O)C1CC1 (stereo not drawn) [CBK283144]
viability at 28.5 h, 10 µM: 97.4%

CN(C)CCN(CCc1ccccc1)Cc1ccncc1 [CBK283145]
viability at 28.5 h, 10 µM: 91.5%

CC1CCCN(C(=O)c2cc(-c3ccccn3)n[nH]2)C1C (stereo not drawn) [CBK283146]
viability at 28.5 h, 10 µM: 88.5%

CN(CCc1ccncc1)C(=O)c1[nH]nc2c1CCCCC2 [CBK283151]
viability at 28.5 h, 10 µM: 96.9%

Cc1cc2ncc3c(n2n1)CC1CCC3N1C(=O)CCn1cccc1 (stereo not drawn) [CBK283157]
viability at 28.5 h, 10 µM: 109%

COc1ccccc1CN(CCCn1ccnc1)Cc1cccn1C [CBK283160]
viability at 28.5 h, 10 µM: 92.2%

CCN1CCCC1CN(Cc1ccccn1)Cc1ccco1 (stereo not drawn) [CBK283161]
viability at 28.5 h, 10 µM: 91.3%

O=C(NCCN1CCC(O)(c2ccc(F)cc2)CC1)C1CCCCC1 [CBK283165]
viability at 28.5 h, 10 µM: 106%

Cc1ccc(C(=O)NCCN2CCC(O)(c3ccc(F)cc3)CC2)o1 [CBK283167]
viability at 28.5 h, 10 µM: 86.3%

C=CCn1ncc(CN(C)Cc2nc3ccccc3[nH]2)c1C [CBK283169]
viability at 28.5 h, 10 µM: 96%

C=Cn1ncc(CN(C)Cc2nc3ccccc3[nH]2)c1C [CBK283170]
viability at 28.5 h, 10 µM: 91.6%

Cc1ccc(CN(CC2CCOC2)C2CC(C)(C)NC(C)(C)C2)o1 (stereo not drawn) [CBK283174]
viability at 28.5 h, 10 µM: 92.6%

Cc1ccc(CN(Cc2[nH]cnc2C)C2CC(C)(C)NC(C)(C)C2)o1 [CBK283176]
viability at 28.5 h, 10 µM: 96.7%

CN(C)CCCN(Cc1ccco1)Cc1cccn1-c1ccccn1 [CBK283180]
viability at 28.5 h, 10 µM: 99.8%

Cc1ccnn1CCNC(=O)CCc1ccc(Cl)cc1 [CBK283182]
viability at 28.5 h, 10 µM: 91.1%

CN(CCc1cn[nH]c1)C(=O)CCc1ccc(Cl)cc1 [CBK283183]
viability at 28.5 h, 10 µM: 91.1%

O=C(CCc1ccc(Cl)cc1)NCCn1cncn1 [CBK283184]
viability at 28.5 h, 10 µM: 98.6%

Cc1cc(C)c2cc(CNC3CC3)c3nn(C)c(=O)n3c2c1 [CBK283186]
viability at 28.5 h, 10 µM: 93.8%

Cc1cccc(CN(CCCN(C)C)Cc2ccc(C)o2)n1 [CBK283187]
viability at 28.5 h, 10 µM: 98.2%

Cc1ccc(CN(CCCN(C)C)Cc2cnc(C)n2C)o1 [CBK283188]
viability at 28.5 h, 10 µM: 95.4%

Cc1ccc(CN(Cc2cncn2C)C2CC(C)(C)NC(C)(C)C2)o1 [CBK283192]
viability at 28.5 h, 10 µM: 103%

CC1CCc2n[nH]c(C(=O)NC3CN4CCC3CC4)c2C1 (stereo not drawn) [CBK283193]
viability at 28.5 h, 10 µM: 108%

CC1CCc2n[nH]c(C(=O)NCCCc3ccccn3)c2C1 (stereo not drawn) [CBK283194]
viability at 28.5 h, 10 µM: 105%

CC1CCc2n[nH]c(C(=O)N(C)CCc3ccncc3)c2C1 (stereo not drawn) [CBK283195]
viability at 28.5 h, 10 µM: 99.5%

CN(C)CCCN(Cc1ccc2ncccc2c1)Cc1ccco1 [CBK283197]
viability at 28.5 h, 10 µM: 112%

CCN(Cc1ccccc1)Cc1nc2ccccc2c(=O)[nH]1 [CBK283203]
viability at 28.5 h, 10 µM: 95.6%

CN(C)CCN(Cc1ccncc1)Cc1ccsc1 [CBK283206]
viability at 28.5 h, 10 µM: 102%

O=C(NCCCCn1ccnc1)c1noc2c1CCCC2 [CBK283208]
viability at 28.5 h, 10 µM: 93.9%

Cc1ccn(CCNC(=O)c2cc3ccc(F)cc3[nH]2)n1 [CBK283209]
viability at 28.5 h, 10 µM: 91.9%

CCC(NC(=O)C(C)Cn1cccn1)c1ccc(F)cc1 (stereo not drawn) [CBK283210]
viability at 28.5 h, 10 µM: 88.1%

CN(CCc1ccncc1)C(=O)c1cc2ccc(F)cc2[nH]1 [CBK283215]
viability at 28.5 h, 10 µM: 81.3%

C1=CCC(CN(CCCn2ccnc2)CC2CCOC2)CC1 (stereo not drawn) [CBK283217]
viability at 28.5 h, 10 µM: 88.8%

Cc1nc[nH]c1CN(CCCn1ccnc1)CC1CC=CCC1 (stereo not drawn) [CBK283218]
viability at 28.5 h, 10 µM: 83%

CCn1cncc1CN(CCCn1ccnc1)CC1CC=CCC1 (stereo not drawn) [CBK283220]
viability at 28.5 h, 10 µM: 101%

Cc1nn(C(C)C)c(C)c1CN(Cc1ccccn1)Cc1ccco1 [CBK283221]
viability at 28.5 h, 10 µM: 114%

COc1cccc(C2(O)CCC3CN(C(C)=O)CC32)c1 (stereo not drawn) [CBK283222]
viability at 28.5 h, 10 µM: 95.8%

CCC1c2cccn2CCN1C(=O)c1cc(-c2ccccn2)n[nH]1 (stereo not drawn) [CBK283224]
viability at 28.5 h, 10 µM: 102%

Cn1cncc1CN(Cc1ccccc1)C1CC(C)(C)NC(C)(C)C1 [CBK283226]
viability at 28.5 h, 10 µM: 89.1%

C=Cn1ncc(CN(CCCN(C)C)Cc2ccco2)c1C [CBK283228]
viability at 28.5 h, 10 µM: 96.8%

Cc1ccc(CN(CCN(C)C)Cc2c(C)nc3sccn23)o1 [CBK283229]
viability at 28.5 h, 10 µM: 116%

CC(C)C(=O)N[C@@H](C)Cn1c(C(F)(F)F)cc2cccnc21 [CBK283231]
viability at 28.5 h, 10 µM: 95.6%

CCCC(=O)N[C@@H](C)Cn1c(C(F)(F)F)cc2cccnc21 [CBK283232]
viability at 28.5 h, 10 µM: 92.7%

Cn1cc(CN(Cc2ccccc2)CC2CCCO2)cn1 (stereo not drawn) [CBK283233]
viability at 28.5 h, 10 µM: 85.1%

C=Cn1ncc(CN(CCN(C)C)Cc2ccc(C)o2)c1C [CBK283236]
viability at 28.5 h, 10 µM: 110%

O=C(NC1CCCOC1)c1cnn(-c2ccc(F)cc2)c1 (stereo not drawn) [CBK283248]
viability at 28.5 h, 10 µM: 89.4%

CC(Cn1cccn1)C(=O)Nc1cccc(N2CCCC2)c1 (stereo not drawn) [CBK283249]
viability at 28.5 h, 10 µM: 87.1%

CC(Cc1cccs1)NC(=O)C(C)Cn1cccn1 (stereo not drawn) [CBK283250]
viability at 28.5 h, 10 µM: 85.4%

C[S+]([O-])CCNC(=O)c1cc(-c2ccc(F)cc2)no1 (stereo not drawn) [CBK283251]
viability at 28.5 h, 10 µM: 89.6%

Cc1ccc(OCCNC(=O)C(C)Cn2cccn2)cc1 (stereo not drawn) [CBK283252]
viability at 28.5 h, 10 µM: 111%

Cc1cc(C)c2[nH]c(C(=O)NCc3c(C)n[nH]c3C)c(C)c2c1 [CBK283254]
viability at 28.5 h, 10 µM: 87.4%

FC(F)(F)c1[nH]c2ncccc2c1CN1CCSCC1 [CBK283257]
viability at 28.5 h, 10 µM: 87.7%

COc1ccccc1CCCNC(=O)c1ccc2nc(C)[nH]c2c1 [CBK283258]
viability at 28.5 h, 10 µM: 84.7%

Cc1nc2ccc(C(=O)NC(c3ccccc3)c3cccnc3)cc2[nH]1 (stereo not drawn) [CBK283259]
viability at 28.5 h, 10 µM: 103%

CC(C)(C)C(=O)NCCN1CCC(O)(c2ccc(F)cc2)CC1 [CBK283262]
viability at 28.5 h, 10 µM: 92%

COc1cccc2c1cc(C(=O)NC1CCCN(C)C1)n2C (stereo not drawn) [CBK283266]
viability at 28.5 h, 10 µM: 90.2%

COc1cccc2c1cc(C(=O)NCCn1ccnc1C)n2C [CBK283267]
viability at 28.5 h, 10 µM: 101%

CC1(C)CC(N(Cc2ccncc2)Cc2ccoc2)CC(C)(C)N1 [CBK283269]
viability at 28.5 h, 10 µM: 98.1%

Cc1c(C(=O)N(C)Cc2cccn2C)[nH]c2ccccc12 [CBK283270]
viability at 28.5 h, 10 µM: 94.6%

Cc1ccc(CN(Cc2cncn2C)CC2CCCO2)o1 (stereo not drawn) [CBK283272]
viability at 28.5 h, 10 µM: 93.2%

Cc1ncc(C(=O)NC2(c3ccccc3F)CCCC2)c(C)n1 [CBK283274]
viability at 28.5 h, 10 µM: 84.5%

CCc1nc2cc(NC(=O)c3cc(C4CC4)nn3C)ccc2n1C [CBK283275]
viability at 28.5 h, 10 µM: 85.8%

Cc1ccc(-c2cc(C(=O)NC3CN4CCC3CC4)[nH]n2)o1 (stereo not drawn) [CBK283276]
viability at 28.5 h, 10 µM: 104%

O=C(NCCn1nc2c(cc1=O)CCCCC2)c1cccs1 [CBK283277]
viability at 28.5 h, 10 µM: 100%

O=C(NCCn1nc2c(cc1=O)CCCCC2)c1ccccc1 [CBK283278]
viability at 28.5 h, 10 µM: 85.7%

O=C(NCCn1nc2c(cc1=O)CCCCC2)c1ccc(F)cc1 [CBK283279]
viability at 28.5 h, 10 µM: 93.3%

Cc1nc2ccc(C(=O)NCCN3CCc4ccccc43)cc2[nH]1 [CBK283280]
viability at 28.5 h, 10 µM: 94.2%

COc1cccc2c1cc(C(=O)NCCCc1ccccn1)n2C [CBK283283]
viability at 28.5 h, 10 µM: 83.7%

CC1CC1C(=O)NCCN1CCC(O)(c2cccc(F)c2)CC1 (stereo not drawn) [CBK283286]
viability at 28.5 h, 10 µM: 84.4%

O=C(NCCCc1ccccn1)c1cnn(-c2ccc(F)cc2)c1 [CBK283287]
viability at 28.5 h, 10 µM: 87.6%
